Results published in US10717749B2, “Macrocyclic sulfondiimine compounds” (BAYER PHARMA AKTIENGESELLSCHAFT, priority 2015, dated 2020).
Like-named read-outs stand apart in the source and are kept apart here. Marks after values point to notes of the source that are not given here.

What was measured:
CDK9/CycT1 = target: T1, CDK9/CycT1 (Homo sapiens, UniProt P50750); test: CDK9/CycT1 high ATP kinase assay (Method 1b, TR-FRET, 2 mM ATP); assay type: biochemical; conditions: for IC50: Method 1b, 2 mM ATP; for Selectivity high ATP CDK9 over high ATP CDK2: IC50 (high ATP CDK2)/IC50 (high ATP CDK9): Methods 1b and 2b, minimal values
T1 construct: Recombinant full-length His-tagged human CDK9 and CycT1; His; purchased Invitrogen PV4131; host or cells: insect cells
T1 sequence (P50750 whole entry): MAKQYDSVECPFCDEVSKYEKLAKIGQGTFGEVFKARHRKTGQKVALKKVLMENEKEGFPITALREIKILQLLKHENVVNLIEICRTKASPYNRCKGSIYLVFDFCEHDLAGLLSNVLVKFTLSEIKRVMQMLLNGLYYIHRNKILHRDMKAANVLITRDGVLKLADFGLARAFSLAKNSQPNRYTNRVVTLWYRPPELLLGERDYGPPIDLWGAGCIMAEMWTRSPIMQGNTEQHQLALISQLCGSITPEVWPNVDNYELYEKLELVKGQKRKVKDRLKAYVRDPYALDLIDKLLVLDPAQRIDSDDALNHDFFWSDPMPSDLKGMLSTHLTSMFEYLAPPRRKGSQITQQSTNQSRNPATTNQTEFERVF
T1 sequence (O60563 whole entry partner): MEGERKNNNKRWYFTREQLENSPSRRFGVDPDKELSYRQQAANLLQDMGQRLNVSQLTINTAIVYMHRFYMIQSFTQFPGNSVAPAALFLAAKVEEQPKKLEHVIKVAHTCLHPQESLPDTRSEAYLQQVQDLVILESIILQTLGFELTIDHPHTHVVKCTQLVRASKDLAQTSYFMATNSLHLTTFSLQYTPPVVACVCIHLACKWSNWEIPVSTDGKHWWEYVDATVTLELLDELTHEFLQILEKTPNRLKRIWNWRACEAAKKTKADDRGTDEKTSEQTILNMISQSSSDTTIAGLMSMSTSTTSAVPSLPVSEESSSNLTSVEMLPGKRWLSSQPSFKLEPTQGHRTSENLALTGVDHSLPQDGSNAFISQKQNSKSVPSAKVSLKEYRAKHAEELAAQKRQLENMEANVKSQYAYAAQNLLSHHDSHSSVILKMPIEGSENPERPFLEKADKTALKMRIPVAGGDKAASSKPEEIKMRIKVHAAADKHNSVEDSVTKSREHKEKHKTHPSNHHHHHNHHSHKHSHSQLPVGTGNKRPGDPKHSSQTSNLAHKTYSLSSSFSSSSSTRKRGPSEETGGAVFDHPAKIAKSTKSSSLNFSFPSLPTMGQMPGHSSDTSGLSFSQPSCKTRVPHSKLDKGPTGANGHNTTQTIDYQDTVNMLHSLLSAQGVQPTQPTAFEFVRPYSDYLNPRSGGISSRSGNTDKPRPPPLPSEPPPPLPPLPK
Experimental: 1b. CDK9/CycT1 High ATP Kinase Assay
CDK9/CycT1-inhibitory activity of compounds of the present invention at a high ATP concentration after preincubation of enzyme and test compounds was quantified employing the CDK9/CycT1 TR-FRET assay as described in the following paragraphs.
Recombinant full-length His-tagged human CDK9 and CycT1, expressed in insect cells and purified by Ni-NTA affinity chromatography, were purchase from Invitrogen (Cat. No PV4131). As substrate for the kinase reaction biotinylated peptide biotin-Ttds-YISPLKSPYKISEG (C-terminus in amid form) was used which can be purchased e.g. from the company JERINI peptide technologies (Berlin, Germany). For the assay 50 nl of a 100 fold concentrated solution of the test compound in DMSO was pipetted into a black low volume 384 well microtiter plate (Greiner Bio-One, Frickenhausen, Germany), 2 μl of a solution of CDK9/CycT1 in aqueous assay buffer [50 mM Tris/HCl pH 8.0, 10 mM MgCl2, 1.0 mM dithiothreitol, 0.1 mM sodium ortho-vanadate, 0.010% (v/v) Nonidet-P40 (Sigma)] were added and the mixture was incubated for 15 min at 22° C. to allow pre-binding of the test compounds to the enzyme before the start of the kinase reaction. Then the kinase reaction was started by the addition of 3 μl of a solution of adenosine-tri-phosphate (ATP, 3.3 mM=> final conec. in the 5 μl assay volume is 2 mM) and substrate (1.67 μM=> final conc. in the 5 μl assay volume is 1 μM) in assay buffer and the resulting mixture was incubated for a reaction time of 25 min at 22° C. The concentration of CDK9/CycT1 was adjusted depending of the activity of the enzyme lot and was chosen appropriate to have the assay in the linear range, typical concentrations were in the range of 0.5 μg/mL. The reaction was stopped by the addition of 5 μl of a solution of TR-FRET detection reagents (0.2 μM streptavidine-XL665 [Cisbio Bioassays, Codolet, France] and 1 nM anti-RB(pSer807/pSer811)-antibody from BD Pharmingen [#558389] and 1.2 nM LANCE EU-W1024 labeled anti-mouse IgG antibody [Perkin-Elmer, product no. AD0077]) in an aqueous EDTA-solution (100 mM EDTA, 0.2% (w/v) bovine serum albumin in 100 mM HEPES pH 7.5).
The resulting mixture was incubated 1 h at 22° C. to allow the formation of complex between the phosphorylated biotinylated peptide and the detection reagents. Subsequently the amount of phosphorylated substrate was evaluated by measurement of the resonance energy transfer from the Eu-chelate to the streptavidine-XL. Therefore, the fluorescence emissions at 620 nm and 665 nm after excitation at 350 nm was measured in a HTRF reader, e.g. a Rubystar (BMG Labtechnologies, Offenburg, Germany) or a Viewlux (Perkin-Elmer). The ratio of the emissions at 665 nm and at […] was taken as the measure for the amount of phosphorylated substrate. The data were normalised (enzyme reaction without inhibitor=0% inhibition, all other assay components but no enzyme=100% inhibition).

[1] = target: T2, human PTEFb (CDK9/Cyclin T1) (Homo sapiens, UniProt P50750); test: Surface Plasmon Resonance PTEFb; assay type: binding; conditions: for Target resident time: 1/koff; for koff: read-out: Dissociation rate constant koff
T2 construct: purchased ProQinase, Freiburg, Germany
T2 sequence (P50750 whole entry): as the sequence (P50750 whole entry) above
T2 sequence (O60563 whole entry partner): as the sequence (O60563 whole entry partner) above
Excerpt: 8. Surface Plasmon Resonance PTEFb
The ability of the compounds according to the invention to bind human PTEFb may be determined using surface plasmon resonance (SPR). KD values and koff values may be measured using a Biacoret T200 instrument (GE Healthcare, Uppsala, Sweden).
For SPR measurements, recombinant human PTEFb (CDK9/Cyclin T1 recombinant human active protein kinase purchased from ProQinase, Freiburg, Germany) is immobilized using standard amine coupling (Johnsson B et al, Anal Biochem. 1991 Nov. 1; 198(2):268-77). Briefly, carboxymethylated dextran biosensor chips (CM7, GE Healthcare) are activated with N-ethyl-N′-(3-dimethylaminopropyl)-carbodiimide hydrochloride (EDC) and N-hydroxysuccinimide (NHS) according to the supplier's instructions. Human PTEFb is diluted in 1×HBS-EP+(GE Healthcare) into 30 μg/ml and injected on the activated chip surface. Subsequently, a 1:1 solution of 1 M ethanolamine-HCl (GE Healthcare) and 1×HBS-EP is injected to block unreacted groups, resulting in approximately 4000 response units (RU) of immobilized protein. A reference surface is generated by treatment with NHS-EDC and ethanolamine-HCl. Compounds are dissolved in 100% dimethylsulfoxide (DMSO, Sigma-Aldrich, Germany) to a concentration of 10 mM and subsequently diluted in running buffer (1×HBS-EP+pH 7.4 [generated from HBS-EP+Buffer 10×(GE Healthcare): 0.1 M HEPES, 1.5 M NaCl, 30 mM EDTA and 0.5% v/v Surfactant P20], 1% v/v DMSO). For kinetic measurements, four-fold serial dilutions of compound (0.39 nM to 100 nM) are injected over immobilized protein. […] Compound concentrations are injected for 60 s followed by a dissociation time of 1800 s. The resulting sensorgrams are double-referenced against the reference surface as well as against blank injections.
The double-referenced sensorgrams are fit to a simple reversible Langmuir 1:1 reaction mechanism as implemented in the Biacore® T200 evaluation software 2.0 (GE Healthcare). In cases were full compound dissociation has not occurred at the end of the dissociation phase, the Rmax parameter (response at saturation) is fit as local variable. In all other cases, Rmax is fit as global variable.

| IC50 (CDK9/CycT1) [nM] | Selectivity high ATP CDK9 over high ATP CDK2: IC50 (high ATP CDK2)/IC50 (high ATP CDK9) (CDK9/CycT1) | Target resident time ([1]; 25° C., Parameters B) | koff ([1]; 25° C., Parameters B) [s⁻¹] | Target resident time ([1]; 25° C., Parameters C) [min] | koff ([1]; 25° C., Parameters C) [s⁻¹] | Compound | other results |
| --- | --- | --- | --- | --- | --- | --- | --- |
| 2 | 123 | > 666 min | < 2.5e-05 | > 333 | < 5e-05 | CS(=N)(Cc1cc2nc(c1)OCCCOc1cc(F)ccc1-c1cc(ncc1F)N2)=NCCCO (racemic) [Example 2, (rac)-3-(2-{[15,19-difluoro-3,4-dihydro-2H,11H-10,6-(azeno)-12,16-(metheno)-1,5,11,13-benzodioxadiazacyclooctadecin-8-yl]methyl}-2-methyl-2λ^6-diazathia-1,2-dien-1-yl)propan-1-ol] | – |
| 1.7 | 36.7 | > 666 min | < 2.5e-05 | > 333 | < 5e-05 | CS(=N)(Cc1cc2nc(c1)OCCCOc1cc(F)ccc1-c1cc(ncc1F)N2)=NC#N (racemic) [Example 3, (rac)-[{[15,19-difluoro-3,4-dihydro-2H,11H-10,6-(azeno)-12,16-(metheno)-1,5,11,13-benzodioxadiazacyclooctadecin-8-yl]methyl}(imino)methyl-λ^6-sulfanylidene]cyanamide] | – |
| 3.7 | 168 | – | 4.96e-05 | – | – | CN=S(C)(=N)Cc1cc2nc(c1)OCCCOc1cc(F)ccc1-c1cc(ncc1F)N2 (racemic) [Example 4, (rac)-8-[(N,S-dimethylsulfonodiimidoyl)methyl]-15,19-difluoro-3,4-dihydro-2H,11H-10,6-(azeno)-12,16-(metheno)-1,5,11,13-benzodioxadiazacyclooctadecine] | Target resident time ([1]; 25° C., Parameters D): 70 min; koff ([1]; 25° C., Parameters D): 0.000237 s⁻¹ |
| 2.3 | 433 | – | – | – | – | CS(=N)(Cc1cc2cc(c1)OCCCCOc1cc(F)ccc1-c1nc(ncc1F)N2)=NC1CC1 (racemic) [Example 9, (rac)-9-[(N-cyclopropyl-S-methylsulfonodiimidoyl)methyl]-16,20-difluoro-2,3,4,5-tetrahydro-12H-13,17-(azeno)-11,7-(metheno)-1,6,12,14-benzodioxadiazacyclononadecine] | Target resident time ([1]; 25° C., Parameters F): 79* min; koff ([1]; 25° C., Parameters F): 0.000211 s⁻¹ |
| 3.4 | 485 | – | – | – | – | CN=S(C)(=N)Cc1cc2cc(c1)OCCCCOc1cc(F)ccc1-c1nc(ncc1F)N2 (racemic) [Example 10, (rac)-9-[(N,S-dimethylsulfonodiimidoyl)methyl]-16,20-difluoro-2,3,4,5-tetrahydro-12H-13,17-(azeno)-11,7-(metheno)-1,6,12,14-benzodioxadiazacyclononadecine] | Target resident time ([1]; 37° C., Parameters E): 20* min; koff ([1]; 37° C., Parameters E): 0.000833 s⁻¹ |
| 2 | 70 | > 666 min | < 2.5e-05 | – | – | CS(=N)(=N)Cc1cc2nc(c1)OCCCOc1cc(F)ccc1-c1cc(ncc1F)N2 [Example 1, 15,19-difluoro-8-[(S-methylsulfonodiimidoyl)methyl]-3,4-dihydro-2H,11H-10,6-(azeno)-12,16-(metheno)-1,5,11,13-benzodioxadiazacyclooctadecine] | Target resident time ([1]; 25° C., Parameters A): > 333 min; koff ([1]; 25° C., Parameters A): < 5e-05 s⁻¹ |
| 2.1 | 590 | – | – | 49 | 0.000338 | CS(=N)(=N)Cc1cc2cc(c1)OCCCCOc1cc(F)ccc1-c1nc(ncc1F)N2 [Example 5, 16,20-difluoro-9-[(S-methylsulfonodiimidoyl)methyl]-2,3,4,5-tetrahydro-12H-13,17-(azeno)-11,7-(metheno)-1,6,12,14-benzodioxadiazacyclononadecine] | Target resident time ([1]; 25° C., Parameters D): 40 min; koff ([1]; 25° C., Parameters D): 0.000412 s⁻¹; Target resident time ([1]; 37° C., Parameters E): 21* min; koff ([1]; 37° C., Parameters E): 0.000809 s⁻¹ |
| 5.9 | 2118 | 9* min | 0.00188 | – | – | CS(=N)(=N)Cc1cc2cc(c1)OCCCCOc1c(ccc(F)c1F)-c1nc(ncc1F)N2 [Example 6, 16,20,21-trifluoro-9-[(S-methylsulfonodiimidoyl)methyl]-2,3,4,5-tetrahydro-12H-13,17-(azeno)-11,7-(metheno)-1,6,12,14-benzodioxadiazacyclononadecine] | – |
| – | 2132 | – | – | – | – | CS(=N)(=N)Cc1cc2cc(c1)OCCCCOc1c(F)cccc1-c1nc(ncc1F)N2 [Example 7, 16,21-difluoro-9-[(S-methylsulfonodiimidoyl)methyl]-2,3,4,5-tetrahydro-12H-13,17-(azeno)-11,7-(metheno)-1,6,12,14-benzodioxadiazacyclononadecine] | Target resident time ([1]; 25° C., Parameters G): 11* min; koff ([1]; 25° C., Parameters G): 0.00154 s⁻¹ |
| 1.5 | 252 | – | – | – | – | CS(=N)(=N)Cc1cc2nc(c1C#N)OCCCOc1cc(F)ccc1-c1cc(ncc1F)N2 [Example 8, 15,19-difluoro-8-[(S-methylsulfonodiimidoyl)methyl]-3,4-dihydro-2H,11H-10,6-(azeno)-12,16-(metheno)-1,5,11,13-benzodioxadiazacyclooctadecine-7-carbonitrile] | Target resident time ([1]; 25° C., Parameters G): 51* min; koff ([1]; 25° C., Parameters G): 0.000326 s⁻¹ |
